Experimental data: US20120082976A1, “METHOD OF SCREENING FOR INSULIN SECRETION-POTENTIATING AGENTS” (KOBE UNIVERSITY, priority 2009, published 2012)

Key:
[1] = test system: Rap1; test: GTP-RAP1 pull-down assay in Epac2-lacking pancreatic beta-cells; format: cell-based, mouse
Method: (§1) Pancreatic beta-cells lacking Epac2 were obtained according to the technique disclosed in Shibasaki T. et al. Proc. Natl. Acad. Sci. USA 104, 19333-9 (2007), by isolating from the mice which were bred after crossing Epac2-lacking mice with IT6 mice, in which SV40 large T […] is expressed under the control of human insulin gene promoter. The method for preparing IT6 mice is described in Miyazaki J, et al., Endocrinology, 127, 126-132 (1990). Further, MIN6 cells were prepared by the technique disclosed in Japanese patent application publication No. 2002-125661.
(§2) GTP-RAP1 pull-down assay was performed according to the method described in Shibasaki T. et al. Proc. Natl. Acad. Sci. USA 104, 19333-9 (2007). Namely, MIN6 cells which had been let stand for 30 minutes in HEPES-KRB buffer in advance were cultured for further 15 minutes in HEPES-KRB buffer containing an agent of interest and 2.8 mM glucose. Then, the cells were fractured, and to the cell lysate thus obtained was added glutathione resin which carried GST-Ra1GDS-RID bound to it (SIGMA). After 90 minutes of incubation at 4 deg C., the resin was separated by centrifugation, washed several times with HEPES-KRB buffer, and subjected to SDS-PAGE gel electrophoresis. After the SDS-PAGE gel electrophoresis, Western blotting was carried to transfer the protein onto PVDF membrane, and Rap1 transferred on the membrane was detected with anti-Rap1 antibody (Santa Cruz Biotechnology, Inc., USA).
Then, using Epac2-lacking pancreatic beta-cells, examination was performed as to whether Rap1 was activated by SU agents. Activation of Rap1 was measured by determining the amount of GTP-bound Rap1 using GTP-RAP1 pull-down assay.

[2] = molecular target: T1, fluorescent-labeled mouse Epac2 (Mus musculus, UniProt Q9EQZ6); test: FRET dynamic analysis of fluorescent-labeled mouse Epac2 in COS-1 cells; format: cell-based; design: expressed in transfected cells; host or cells: COS-1 cells (A1); conditions: COS-1 cells that did not express SUR1, in the presence of SU agent
T1 sequence (Q9EQZ6 1-1011): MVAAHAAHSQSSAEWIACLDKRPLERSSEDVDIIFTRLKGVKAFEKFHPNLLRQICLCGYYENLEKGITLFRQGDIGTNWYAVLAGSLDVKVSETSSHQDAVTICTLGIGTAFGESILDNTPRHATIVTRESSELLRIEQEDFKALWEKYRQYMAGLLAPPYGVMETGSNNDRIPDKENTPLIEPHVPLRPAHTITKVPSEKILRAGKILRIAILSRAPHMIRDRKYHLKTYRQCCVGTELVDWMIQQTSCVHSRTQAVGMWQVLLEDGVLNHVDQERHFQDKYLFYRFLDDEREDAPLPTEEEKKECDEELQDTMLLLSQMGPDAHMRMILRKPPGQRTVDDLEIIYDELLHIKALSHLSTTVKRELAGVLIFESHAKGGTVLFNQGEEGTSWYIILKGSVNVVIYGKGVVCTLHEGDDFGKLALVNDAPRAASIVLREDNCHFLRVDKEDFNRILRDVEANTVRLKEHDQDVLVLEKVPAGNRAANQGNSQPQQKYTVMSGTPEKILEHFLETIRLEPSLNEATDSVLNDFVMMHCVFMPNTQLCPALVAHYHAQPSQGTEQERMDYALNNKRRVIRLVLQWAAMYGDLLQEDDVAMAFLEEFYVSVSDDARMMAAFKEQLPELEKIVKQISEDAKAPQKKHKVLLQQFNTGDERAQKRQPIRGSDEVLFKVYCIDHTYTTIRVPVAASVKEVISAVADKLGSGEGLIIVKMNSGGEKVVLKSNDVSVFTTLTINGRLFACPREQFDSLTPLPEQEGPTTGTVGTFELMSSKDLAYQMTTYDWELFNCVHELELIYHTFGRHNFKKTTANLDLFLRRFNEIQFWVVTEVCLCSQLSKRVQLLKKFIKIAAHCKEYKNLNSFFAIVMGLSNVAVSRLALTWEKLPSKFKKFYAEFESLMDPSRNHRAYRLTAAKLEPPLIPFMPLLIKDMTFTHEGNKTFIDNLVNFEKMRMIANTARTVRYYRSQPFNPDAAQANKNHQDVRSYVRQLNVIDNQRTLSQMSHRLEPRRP
Method: Two days before the day for measurement, the cells were transformed with fluorescent-labeled mouse Epac2 expression vector and then cultured. On the day before the day for measurement, the cells were transferred onto the glass culture dishes of 25 mm in diameter, and culture was continued. About 48 hours after the transformation, the culture medium was replaced with HEPES-KRB buffer (HEPES buffer containing 133.4 mM NaCl, 4.7 mM KCl, 1.2 mM KH2PO4, 1.2 mM MgSO4, 2.5 mM CaCl2, 5.0 mM NaHCO3, 2.8 mM glucose, and 0.2% BSA (pH 7.4)). The cells were observed through a confocal microscope (FV1000, Olympus Corporation) equipped with the UPlanSApo objective lens (100*oil/1.40 NA) to set the focus of the lens on the cells, and excitation light with the wavelength of 440 nm was irradiated using 440 nm LD laser (FV5-LDPSU, Olympus Corporation) at the power of 0.5%. Fluorescent light emitted from thus excited fluorescent-labeled mouse Epac2 was observed through two fluorescence filters, 480DF30 (for 480 nm light) and 535DF25 (for 535 nm light) as dual images of the fluorescent light every 5 seconds for dynamic analysis of the emitted fluorescent light. The results of the dynamic analysis, after first calculating the ratio R in intensity of fluorescence at 535 nm to 480 nm at each measurement (ratio of intensity at 535 nm/intensity at 480 nm), were expressed in the value which was derived by dividing the ratio by the initial value R0 (ratio of intensity at 535 nm/intensity at 480 nm before addition of an agent), i.e., R/R0. All the observation was carried out at room temperature.

[3] = test system: Rap1; test: GTP-RAP1 pull-down assay in Epac2-lacking pancreatic beta-cells transformed with mouse Epac2 expression vector; format: cell-based
Method: as §1, §2

[4] = test system: Rap1; test: GTP-RAP1 pull-down assay in MIN6 cells; format: cell-based
Method: as §2
Epac2 has the GEF activity and activates Rap1 by converting it to GTP-bound Rap1 through its binding to […]. This reaction constitute part of signal transmission for insulin secretion in beta-cells. Thus, it was examined whether or not Rap1 is activated with SU agents, using MIN6 cells, which originate from beta-cells. Activation of Rap1 was measured by determining GTP-bound Rap1, using GTP-RAP1 pull-down assay.

[5] = molecular target: T2, mouse Epac2 (Mus musculus, UniProt Q9EQZ6); test: Sulfonylurea binding experiment with tritium-labeled glibenclamide in COS-1 cells transformed with mouse Epac2 expression vector
T2 construct: expressed in transfected cells; host or cells: COS-1 cells
T2 sequence (Q9EQZ6 1-1011): T1 sequence (Q9EQZ6 1-1011)
From the text: COS1 cells were transformed with mouse Epac2 expression vector. […] The membrane was washed four times with the same buffer which had been ice cooled, and then measured for radioactivity on a liquid scintillation counter.

[6] = test system: pancreatic islets; test: Insulin secretion experiment, pancreatic islets of wild-type and Epac2-lacking mice; format: cell-based, mouse
Method: Mouse pancreatic beta-cells were isolated from wild-type mice (C57BL/6) or Epac2-lacking mice, and cultured for two days. The mouse pancreatic beta-cells were let stand in HEPES-KRB buffer containing 2.8 mM glucose for 30 minutes. The cells then were dispensed to […] in such a manner that five pancreatic islets of a like size were contained in each well, and cultured for 15 minutes in 100 micro L HEPES-KRB buffer containing an agent of interest and 2.8 mM glucose. The amount of insulin released in the medium and that in the cells were measured using an insulin assay kit (Medical Biological Laboratories Co. Ltd.). The amount of secreted insulin was normalized by the amount of insulin in the cells.
The effect of SU agents on insulin secretion via Epac2 was examined in an insulin secretion experiment using pancreatic islets. First, pancreatic islets obtained from wild-type mice and Epac2-lacking mice were stimulated with glucose, and the amount of secreted insulin was determined.

[7] = molecular target: T1, fluorescent-labeled mouse Epac2; test: FRET dynamic analysis of fluorescent-labeled mouse Epac2 in MIN6 cells; format: cell-based; design: expressed in transfected cells; host or cells: MIN6 cells (A3); conditions: in the presence of SU agent
Method: All the observation was carried out at room temperature.

[8] = clinical report (Non-patent document 19); cited from earlier work
[9] = Oral glucose tolerance test in wild-type and Epac2-lacking mice; format: in vivo, mouse; conditions: oral 1.5 g/kg glucose plus 100 mg/kg tolbutamide
Method: Peripheral blood was sampled at a predetermined point of time, and serum insulin concentration and blood glucose concentration were measured with an ELISA kit (mftd. by Morinaga) and Antisense III glucose analysis device (Bayer Yakuhin, Ltd.), respectively.
Next, glucose was administered together with tolbutamide, and measurement was conducted in the same manner.

[10] = concentration-dependent, 15 minutes, 2.8 mM glucose

change in R/R0 value (FRET) [2] | IC50 [5] [µM] | Structure (SMILES) | activation of Rap1 [1] | activation of Rap1 [3] | amount of GTP-bound Rap1 (activation of Rap1) [4, 10] | insulin secretion, islets from Epac2-lacking mice compared with wild-type mice ([6]; 10 nM) | change in R/R0 value (FRET) [7] | amount of GTP-bound Rap1 (activation of Rap1) ([4]; concentrations higher than 100 nM) | glycemic control in a patient with neonatal diabetes [8] | blood glucose concentration, Epac2-lacking mice compared with wild-type mice [9] | serum insulin concentration, Epac2-lacking mice compared with wild-type mice [9] | insulin secretion, islets from Epac2-lacking mice compared with wild-type mice ([6]; 100 nM)
decrease in R/R0 |  | CC(=O)c1ccc(S(=O)(=O)NC(=O)NC2CCCCC2)cc1 [acetohexamide] | activated no Rapt | found to activate Rap1 | increase the amount of GTP-bound Rap1 |  |  |  |  |  |  | 
decrease in R/R0 |  | CCCNC(=O)NS(=O)(=O)c1ccc(Cl)cc1 [chlorpropamide] | activated no Rapt | found to activate Rap1 | increase the amount of GTP-bound Rap1 |  |  |  |  |  |  | 
decrease in R/R0 | 0.025 | COc1ccc(Cl)cc1C(=O)NCCc1ccc(S(=O)(=O)NC(=O)NC2CCCCC2)cc1 [glibenclamide] | activated no Rapt | found to activate Rap1 | increase the amount of GTP-bound Rap1 | markedly low insulin secretion | concentration-dependent decrease in R/R0 value | failed to increase it |  |  |  | 
no change in R/R0 value |  | Cc1ccc(S(=O)(=O)NC(=O)NN2CC3CCCC3C2)cc1 (stereo not shown) [gliclazide] |  |  | no effect on the amount of GTP-bound Rap1 | no significant difference |  |  | not effective |  |  | 
decrease in R/R0 |  | Cc1cnc(C(=O)NCCc2ccc(S(=O)(=O)NC(=O)NC3CCCCC3)cc2)cn1 [glipizide] | activated no Rapt | found to activate Rap1 | increase the amount of GTP-bound Rap1 |  |  |  |  |  |  | 
no change in R/R0 value |  | CC(C)[C@H]1CC[C@H](C(=O)N[C@H](Cc2ccccc2)C(=O)O)CC1 [nateglinide] |  | did not activate Rap1 |  |  |  |  |  |  |  | 
decrease in R/R0 | 240 | CCCCNC(=O)NS(=O)(=O)c1ccc(C)cc1 [tolbutamide] | activated no Rapt | found to activate Rap1 |  |  | concentration-dependent decrease in R/R0 value |  |  | high in the Epac2-lacking mice compared with the wild-type mice | low in the Epac2-lacking mice compared with the wild-type mice | markedly low insulin secretion
